Reference: article PMC5442318, “Hundreds of dual-stage antimalarial molecules discovered by a functional gametocyte screen” (Nature Communications, 2017)
pIC50: −log10 of the molar value. Like-named read-outs stand apart in the source and are kept apart here.

Columns and labels:
[1] = system: P. falciparum stage V female gametocytes; experiment: P. falciparum female gametocyte activation assay (Pf FGAA), 24 h or 48 h preincubation, Pfs25 expression readout; type: cell-based, Plasmodium falciparum NF54; settings: for IC50: 24h incubation time, read-out: Pf FGAA IC50 (µM) 24h; for Pf FGAA classification: SLOW / FAST / GAMETE from activity at 48h, 24h, 0h incubation; for pIC50: mean, read-out: Gametocytes mean Pf FGAA IC50
How it was run: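 Purified stage V gametocytes from P. falciparum NF54 gametocyte cultures were exposed to compounds for 24 h or 48 h at 37 °C under 3% O2/5% CO2, then activated by temperature drop plus xanthurenic acid. Activated females were stained with Cy3-anti-Pfs25 (0.5 μg ml^−1) for 24 h at 26 °C and counted by high-content imaging; pIC50 by nonlinear regression.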

[2] = system: HepG2 cells; experiment: HepG2 cytotoxicity assay; type: cell-based
How it was run: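 Post-incubation CellTiter-Glo luminescence; 30 min RT equilibration, 10 min RT stabilization before reading.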

[3] = system: P. falciparum asexual blood stages; settings: cited from earlier work; for pIC50: read-out: Pf Asexual blood stages XC50
[4] = system: P. falciparum female gametes; experiment: Pf FGAA with compounds added 30 min after triggering gametocyte activation (gamete-targeting); type: cell-based, Plasmodium falciparum NF54; settings: 0h incubation time
[5] = system: P. falciparum stages IV–V gametocytes; experiment: Gametocytocidal ATP-depletion assay (gametocyte ATP bioluminescence); type: cell-based, Plasmodium falciparum; settings: for inhibition at 2 µM: Plasmodium falciparum, mean
How it was run: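 Purified stage IV–V gametocytes (12,500/well) incubated with compound for 48 h at 37 °C under 3% O2/5% CO2. ATP measured by BacTiter-Glo luminescence as a viability surrogate; hits tested at 2 μM single concentration.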

[6] = TCAMS data, ref 1 (Gamo et al., 2010)
[7] = TCAMS data, ref 1 (Gamo, F. J. et al., Nature 465, 305-310, 2010)
[8] = P. falciparum female gametocytes
[9] = TCAMS asexual blood stage data, ref 1 (Gamo, F. J. et al., Nature 465, 305-310, 2010)
[10] = P. falciparum female gametocyte activation assay
[11] = Plasmodium falciparum, P. falciparum female gametocytes
[12] = HepG2 TOX50 versus Pf FGAA IC50

Compound	IC50 [1]	Pf FGAA classification [1]	pIC50 [1]	HepG2 cells mean TOX50 ([2]; mean)	pIC50 [3, 6]	Pf Asexual stages XC50 [3, 7]	IC50 [4]	Gametocytes mean ATP inhibition at 2µM (%) [5]	pIC50 [1, 8]	HepG2 cells mean TOX50 ([2]; HepG2 cells; mean)	pIC50 [3, 9]	Gametocytes mean ATP inhibition at 2µM [5]	pIC50 [1, 10]	HepG2 cells mean TOX50 ([2]; mean; HepG2 cells)	IC50 ([1]; Plasmodium falciparum)	pIC50 [1, 11]	Selectivity ratio [2, 12]	IC50 ([4]; Plasmodium falciparum)	inhibition at 2 µM [5]	HepG2 cells TOX50 ([2]; HepG2 cells)
COC(=O)c1ccc(-c2ccc(C(=O)NCC3CCN(c4nc(N)c5cc(OC)c(OC)cc5n4)CC3)cc2)cc1 [TCMDC-138721]	1.88 µM	FAST	6.04	6.10 µM	6.72	190 nM	13.5 µM	31.66%	–	–	–	–	–	–	–	–	–	–	–	–
O=C(NCC1CCN(Cc2cccc(C(F)(F)F)c2)C1)c1cc(-c2cccc(F)c2)cs1.O=C(O)C(F)(F)F (stereo not shown) [TCMDC-134484]	2.82 µM	SLOW	–	–	–	1180 nM	> 20 µM	–	5.65	18.87 µM	5.93	-3.56%	–	–	–	–	–	–	–	–
O=C(CCC1CCCC1)N(Cc1ccc(-c2ccc(CNCCc3ccccc3)cc2)cc1)C1CCCNC1.O=C(O)C(F)(F)F (stereo not shown) [TCMDC-141444]	6.85 µM	SLOW	–	–	–	1220 nM	15.3 µM	–	–	–	5.91	26.17%	5.70	5.19 µM	–	–	–	–	–	–
O=C(c1ccc([N+](=O)[O-])o1)N1CCN(c2nc3c(Cl)cccc3s2)CC1 [TCMDC-124316]	–	FAST	–	–	–	980 nM	–	–	–	41.96 µM	6.01	–	–	–	1.38 µM	5.96	38.14	> 20 µM	0.49%	–
N#CC(c1ccc(Br)cc1)c1ccc2c(C(F)(F)F)cc(C(F)(F)F)nc2n1 (stereo not shown) [TCMDC-123754]	–	SLOW	–	–	–	440 nM	–	–	–	2.32 µM	6.36	–	–	–	> 20 µM	5.94	2.01	> 20 µM	-2.55%	–
CNCC(C)(C)c1nc(-c2ccc(Cl)c(O)c2)c(-c2ccncc2)[nH]1.Cl [TCMDC-140762]	1.06 µM	GAMETE	6.06	13.52 µM	6.13	740 nM	0.61 µM	-1.34%	–	–	–	–	–	–	–	–	–	–	–	–
O=C(Nc1nc(-c2ccccn2)cs1)c1ccc(Br)s1 [TCMDC-123868]	0.14 µM	GAMETE	–	–	–	1060 nM	2.14 µM	–	5.94	37.44 µM	5.97	29.36%	–	–	–	–	–	–	–	–
CCN(CCNS(C)(=O)=O)c1ccc(N)c(C)c1.O.O=S(=O)(O)O [TCMDC-125836]	0.3 µM	FAST	–	–	–	880 nM	3.56 µM	–	5.94	26.14 µM	6.06	7.23%	–	–	–	–	–	–	–	–
COc1cccc(-c2csc(C(=O)NCC3CCN(Cc4ccc(C(C)C)cc4)C3)c2)c1.O=C(O)C(F)(F)F (stereo not shown) [TCMDC-134439]	3.22 µM	SLOW	–	–	–	1390 nM	> 20 µM	–	5.86	11.51 µM	5.86	2.89%	–	–	–	–	–	–	–	–
CCOc1ccc2c(=NN=Cc3cc(OC)c(OC)cc3OC)cc(C)[nH]c2c1 [TCMDC-142207]	4.97 µM	SLOW	–	–	–	170 nM	6.42 µM	–	–	–	6.00	-8.55%	5.91	12.17 µM	–	–	–	–	–	–
O=C(Nc1ccc(-c2ccccc2)c(OCCN2CCNCC2)c1)c1ccc(-c2ccc(Cl)cc2)cc1 [TCMDC-138818]	1.75 µM	FAST	5.86	4.95 µM	6.11	840 nM	> 20 µM	1.63%	–	–	–	–	–	–	–	–	–	–	–	–
CC(=O)Nc1ccc2[nH]cc(C3CCN(CC4CCC(NC(=O)/C=C/c5ccc(Cl)c(Cl)c5)CC4)CC3)c2n1 (stereo not shown) [TCMDC-140114]	15.5 µM	SLOW	5.76	13.49 µM	6.59	260 nM	> 20 µM	-7.40%	–	–	–	–	–	–	–	–	–	–	–	–
Cc1cccc2nc(-c3ccc(-c4ccc(CNCc5ccc(CN)cc5)cc4)cc3)[nH]c12.O=C(O)C(F)(F)F [TCMDC-132813]	0.21 µM	FAST	–	–	–	720 nM	4.35 µM	–	5.67	18.09 µM	6.14	13.49%	–	–	–	–	–	–	–	–
O=C(NCC1CCN(Cc2cccc(C(F)(F)F)c2)C1)c1cc(-c2cccc(C(F)(F)F)c2)cs1.O=C(O)C(F)(F)F (stereo not shown) [TCMDC-134483]	2.45 µM	SLOW	–	–	–	610 nM	> 20 µM	–	5.78	16.22 µM	6.21	-4.13%	–	–	–	–	–	–	–	–
O=C(c1ccc([N+](=O)[O-])o1)N1CCN(c2nc3c(F)cc(F)cc3s2)CC1 [TCMDC-125149]	1.25 µM	FAST	–	–	–	970 nM	> 20 µM	–	5.88	>100 µM	6.01	5.52%	–	–	–	–	–	–	–	>100 µM
Cc1cc(C(F)(F)F)cc(-n2ncc(-c3ccc(C(=O)NCc4ccccc4N)cc3)c2N)n1.O=C(O)C(F)(F)F [TCMDC-136658]	12.5 µM	SLOW	5.84	26.82 µM	6.35	450 nM	> 20 µM	-1.42%	–	–	–	–	–	–	–	–	–	–	–	–
O=C(Nc1cc(Cl)c(Cl)cc1NC(=O)c1cccc(-c2ccccc2)c1O)c1cccc(-c2ccccc2)c1O [TCMDC-139548]	2.22 µM	FAST	5.96	3.09 µM	6.29	510 nM	> 20 µM	18.16%	–	–	–	–	–	–	–	–	–	–	–	–
